Test results published in PMC5344920, “Drug Repurposing of the Anthelmintic Niclosamide to Treat Multidrug-Resistant Leukemia” (Frontiers in Pharmacology, 2017).

Target: T1, recombinant human GS (GSH synthetase, glutathione synthetase) (Homo sapiens, UniProt P48637)
T1 construct: gene GSS; commercial recombinant protein (Abcam, Cambridge, UK), labelled on amines with BLUE-NHS dye
T1 sequence (P48637 2-474): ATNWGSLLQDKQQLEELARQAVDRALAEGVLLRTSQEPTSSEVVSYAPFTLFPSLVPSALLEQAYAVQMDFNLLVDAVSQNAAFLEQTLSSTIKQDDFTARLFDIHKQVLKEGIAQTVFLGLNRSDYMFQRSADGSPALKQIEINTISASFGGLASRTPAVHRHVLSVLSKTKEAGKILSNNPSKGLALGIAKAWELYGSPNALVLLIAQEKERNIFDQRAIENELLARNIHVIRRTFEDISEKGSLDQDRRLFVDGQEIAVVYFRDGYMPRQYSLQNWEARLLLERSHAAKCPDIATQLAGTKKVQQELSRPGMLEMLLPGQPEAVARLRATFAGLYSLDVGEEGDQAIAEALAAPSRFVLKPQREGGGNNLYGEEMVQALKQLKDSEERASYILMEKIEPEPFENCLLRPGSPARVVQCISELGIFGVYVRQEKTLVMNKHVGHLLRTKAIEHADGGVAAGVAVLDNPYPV
Test: microscale thermophoresis, BLUE-NHS labelled protein
Conditions: read-out: equilibrium binding constant

Kd: 5.64 µM
SMILES: O=C(Nc1ccc([N+](=O)[O-])cc1Cl)c1cc(Cl)ccc1O [niclosamide]
